According to ChEMBL document CHEMBL3046515, “Zn(Proline)2-catalyzed Knoevenagel condensation under solvent-free/aqueous conditions and biological evaluation of products” (2011):
Calls of active or inactive are those of the source. The calls are words filed in the database; no cut-off is given here.

Legend:
Candida albicans [1] = assay: Antifungal activity against Candida albicans at 100 ug/ml after 18 to 48 hr; assay type: functional; settings: for zone of inhibition at 100 µg/mL: read-out: DIZ
Aspergillus niger [2] = assay: Antifungal activity against Aspergillus niger at 100 ug/ml after 72 hr; assay type: functional; settings: for zone of inhibition at 100 µg/mL: read-out: DIZ
Salmonella typhimurium [3] = assay: Antibacterial activity against Salmonella enterica subsp. enterica serovar Typhimurium MTCC 98 at 100 ug/ml after 24 hr by filter paper disk method; assay type: functional; settings: for zone of inhibition at 100 µg/mL: MTCC 98, 24 h, read-out: DIZ
Escherichia coli [4] = assay: Antibacterial activity against Escherichia coli K-12 at 100 ug/ml after 24 hr by filter paper disk method; assay type: functional; settings: for zone of inhibition at 100 µg/mL: K-12, 24 h, read-out: DIZ
Bacillus subtilis [5] = assay: Antibacterial activity against Bacillus subtilis MTCC 121 at 100 ug/ml after 24 hr by filter paper disk method; assay type: functional; settings: for zone of inhibition at 100 µg/mL: MTCC 121, 24 h, read-out: DIZ
Aspergillus fumigatus [6] = assay: Antifungal activity against Aspergillus fumigatus at 100 ug/ml after 72 hr; assay type: functional; settings: for zone of inhibition at 100 µg/mL: read-out: DIZ
Staphylococcus aureus [7] = assay: Antibacterial activity against Staphylococcus aureus SA 22 at 100 ug/ml after 24 hr by filter paper disk method; assay type: functional; settings: for zone of inhibition at 100 µg/mL: SA 22, 24 h, read-out: DIZ
Aspergillus niger [8] = assay: Antifungal activity against Aspergillus niger at 30 ug/disk after 72 hr; assay type: functional, organism-based
Aspergillus fumigatus [9] = assay: Antifungal activity against Aspergillus fumigatus at 30 ug/disk after 72 hr; assay type: functional, organism-based
Candida albicans [10] = assay: Antifungal activity against Candida albicans at 30 ug/disk after 18 to 48 hr; assay type: functional, organism-based
Salmonella typhimurium [11] = assay: Antibacterial activity against Salmonella enterica subsp. enterica serovar Typhimurium MTCC 98 at 30 ug/disc after 24 hr by filter paper disk method; assay type: functional; settings: MTCC 98, 24 h, read-out: DIZ
Bacillus subtilis [12] = assay: Antibacterial activity against Bacillus subtilis MTCC 121 at 30 ug/disk after 24 hr by filter paper disk method; assay type: functional; settings: MTCC 121, 24 h, read-out: DIZ
Escherichia coli [13] = assay: Antibacterial activity against Escherichia coli K-12 at 30 ug/disc after 24 hr by filter paper disk method; assay type: functional; settings: K-12, 24 h, read-out: DIZ
Staphylococcus aureus [14] = assay: Antibacterial activity against Staphylococcus aureus SA 22 at 30 ug/disc after 24 hr by filter paper disk method; assay type: functional; settings: SA 22, 24 h, read-out: DIZ

**Q.** How did the zone of inhibition at 100 µg/mL (Candida albicans [1]) turn out when `Cc1nn(-c2ccccc2)c(Cl)c1/C=C1\Sc2ccccc2NC1=O` was run?
**A.** The zone of inhibition at 100 µg/mL was 15 mm.

**Q.** And the “diameter of the inhibition zone (DIZ)” value (Aspergillus niger [2])?
**A.** Its value is “inactive”.

**Q.** What about the “diameter of the inhibition zone (DIZ)” value (Salmonella typhimurium [3]) of the same molecule?
**A.** The value was “inactive”.

**Q.** What about the zone of inhibition at 100 µg/mL (Escherichia coli [4]) of the same molecule?
**A.** Its zone of inhibition at 100 µg/mL is 8 mm.

**Q.** What about the “diameter of the inhibition zone (DIZ)” value (Bacillus subtilis [5]) of the same molecule?
**A.** The value was “inactive”.

**Q.** What about the “diameter of the inhibition zone (DIZ)” value (Aspergillus fumigatus [6]) of the same molecule?
**A.** The value was “inactive”.

**Q.** And the zone of inhibition at 100 µg/mL (Staphylococcus aureus [7])?
**A.** The zone of inhibition at 100 µg/mL was 14 mm.

**Q.** How did the “diameter of the inhibition zone (DIZ)” value (Candida albicans [1]) turn out when `Cc1nn(-c2ccccc2)c(Cl)c1C=C1C(=O)NC(=O)NC1=O` was run?
**A.** The value was “inactive”.

**Q.** And the “diameter of the inhibition zone (DIZ)” value (Aspergillus niger [2])?
**A.** The value was “inactive”.

**Q.** And the zone of inhibition at 100 µg/mL (Salmonella typhimurium [3])?
**A.** Its zone of inhibition at 100 µg/mL is 12 mm.

**Q.** And the zone of inhibition at 100 µg/mL (Escherichia coli [4])?
**A.** The zone of inhibition at 100 µg/mL was 15 mm.

**Q.** What about the zone of inhibition at 100 µg/mL (Bacillus subtilis [5]) of the same molecule?
**A.** Its zone of inhibition at 100 µg/mL is 19 mm.

**Q.** What about the “diameter of the inhibition zone (DIZ)” value (Aspergillus fumigatus [6]) of the same molecule?
**A.** The value was “inactive”.

**Q.** What about the zone of inhibition at 100 µg/mL (Staphylococcus aureus [7]) of the same molecule?
**A.** The zone of inhibition at 100 µg/mL was 17 mm.

**Q.** How did the “diameter of the inhibition zone (DIZ)” value (Candida albicans [1]) turn out when `CC1=NN(c2ccccc2)C(=O)/C1=C/c1c(C)nn(-c2ccccc2)c1Cl` was run?
**A.** The value was “inactive”.

**Q.** What about the zone of inhibition at 100 µg/mL (Aspergillus niger [2]) of the same molecule?
**A.** The zone of inhibition at 100 µg/mL was 10 mm.

**Q.** What about the zone of inhibition at 100 µg/mL (Salmonella typhimurium [3]) of the same molecule?
**A.** Its zone of inhibition at 100 µg/mL is 12 mm.

**Q.** What about the zone of inhibition at 100 µg/mL (Escherichia coli [4]) of the same molecule?
**A.** Its zone of inhibition at 100 µg/mL is 8 mm.

**Q.** And the zone of inhibition at 100 µg/mL (Bacillus subtilis [5])?
**A.** Its zone of inhibition at 100 µg/mL is 12 mm.

**Q.** And the zone of inhibition at 100 µg/mL (Aspergillus fumigatus [6])?
**A.** Its zone of inhibition at 100 µg/mL is 11 mm.

**Q.** What about the “diameter of the inhibition zone (DIZ)” value (Staphylococcus aureus [7]) of the same molecule?
**A.** Its value is “inactive”.

**Q.** What does the source list for `Cc1nn(-c2ccccc2)c(Cl)c1C=C1C(=O)N(C)C(=S)N(C)C1=O`?
**A.** zone of inhibition at 100 µg/mL (Candida albicans [1]): 16 mm; diameter of the inhibition zone (DIZ) (Aspergillus niger [2]): inactive; zone of inhibition at 100 µg/mL (Salmonella typhimurium [3]): 17 mm; zone of inhibition at 100 µg/mL (Escherichia coli [4]): 15 mm; zone of inhibition at 100 µg/mL (Bacillus subtilis [5]): 8 mm; diameter of the inhibition zone (DIZ) (Aspergillus fumigatus [6]): inactive; zone of inhibition at 100 µg/mL (Staphylococcus aureus [7]): 12 mm

**Q.** Which inhibition zone (IZ) (Aspergillus niger [8]) does the source give for NYSTATIN here?
**A.** Its inhibition zone (IZ) is 18 mm.

**Q.** What about the inhibition zone (IZ) (Aspergillus fumigatus [9]) of the same molecule?
**A.** Its inhibition zone (IZ) is 18 mm.

**Q.** What about the “diameter of the inhibition zone (DIZ)” value (Salmonella typhimurium [3]) of the same molecule?
**A.** The value was “inactive”.

**Q.** And the inhibition zone (IZ) (Candida albicans [10])?
**A.** Its inhibition zone (IZ) is 20 mm.

**Q.** And the “diameter of the inhibition zone (DIZ)” value (Escherichia coli [4])?
**A.** Its value is “inactive”.

**Q.** What about the “diameter of the inhibition zone (DIZ)” value (Bacillus subtilis [5]) of the same molecule?
**A.** Its value is “inactive”.

**Q.** What about the “diameter of the inhibition zone (DIZ)” value (Staphylococcus aureus [7]) of the same molecule?
**A.** Its value is “inactive”.

**Q.** For `Cc1nn(-c2ccccc2)c(Cl)c1C=C1C(=O)OC(C)(C)OC1=O`, which zone of inhibition at 100 µg/mL (Candida albicans [1]) is on record?
**A.** Its zone of inhibition at 100 µg/mL is 14 mm.

**Q.** What about the “diameter of the inhibition zone (DIZ)” value (Aspergillus niger [2]) of the same molecule?
**A.** Its value is “inactive”.

**Q.** What about the “diameter of the inhibition zone (DIZ)” value (Salmonella typhimurium [3]) of the same molecule?
**A.** Its value is “inactive”.

**Q.** What about the “diameter of the inhibition zone (DIZ)” value (Escherichia coli [4]) of the same molecule?
**A.** The value was “inactive”.

**Q.** What about the zone of inhibition at 100 µg/mL (Bacillus subtilis [5]) of the same molecule?
**A.** The zone of inhibition at 100 µg/mL was 15 mm.

**Q.** What about the “diameter of the inhibition zone (DIZ)” value (Aspergillus fumigatus [6]) of the same molecule?
**A.** The value was “inactive”.

**Q.** What about the zone of inhibition at 100 µg/mL (Staphylococcus aureus [7]) of the same molecule?
**A.** Its zone of inhibition at 100 µg/mL is 19 mm.

**Q.** With `O=C(N[C@H](CO)[C@H](O)c1ccc([N+](=O)[O-])cc1)C(Cl)Cl` [CHLORAMPHENICOL] as the molecule, how does the “diameter of the inhibition zone (DIZ)” value (Candida albicans [1]) read?
**A.** Its value is “inactive”.

**Q.** What about the “diameter of the inhibition zone (DIZ)” value (Aspergillus niger [2]) of the same molecule?
**A.** Its value is “inactive”.

**Q.** And the zone of inhibition at 30 µg/disc (Salmonella typhimurium [11])?
**A.** The zone of inhibition at 30 µg/disc was 20 mm.

**Q.** And the zone of inhibition at 30 µg/disc (Bacillus subtilis [12])?
**A.** The zone of inhibition at 30 µg/disc was 24 mm.

**Q.** And the zone of inhibition at 30 µg/disc (Escherichia coli [13])?
**A.** Its zone of inhibition at 30 µg/disc is 25 mm.

**Q.** And the zone of inhibition at 30 µg/disc (Staphylococcus aureus [14])?
**A.** The zone of inhibition at 30 µg/disc was 26 mm.

**Q.** And the “diameter of the inhibition zone (DIZ)” value (Aspergillus fumigatus [6])?
**A.** The value was “inactive”.

**Q.** How did the zone of inhibition at 100 µg/mL (Candida albicans [1]) turn out when `Cc1nn(-c2ccccc2)c(Cl)c1C=C1C(=O)N(C)C(=O)N(C)C1=O` was run?
**A.** Its zone of inhibition at 100 µg/mL is 11 mm.

**Q.** And the zone of inhibition at 100 µg/mL (Aspergillus niger [2])?
**A.** The zone of inhibition at 100 µg/mL was 8 mm.

**Q.** What about the zone of inhibition at 100 µg/mL (Salmonella typhimurium [3]) of the same molecule?
**A.** Its zone of inhibition at 100 µg/mL is 14 mm.

**Q.** And the zone of inhibition at 100 µg/mL (Escherichia coli [4])?
**A.** Its zone of inhibition at 100 µg/mL is 15 mm.

**Q.** And the zone of inhibition at 100 µg/mL (Bacillus subtilis [5])?
**A.** Its zone of inhibition at 100 µg/mL is 16 mm.

**Q.** And the zone of inhibition at 100 µg/mL (Aspergillus fumigatus [6])?
**A.** The zone of inhibition at 100 µg/mL was 11 mm.

**Q.** What about the zone of inhibition at 100 µg/mL (Staphylococcus aureus [7]) of the same molecule?
**A.** The zone of inhibition at 100 µg/mL was 20 mm.

**Q.** For `Cc1nn(-c2ccccc2)c(Cl)c1C=C1C(=O)c2ccccc2C1=O`, which zone of inhibition at 100 µg/mL (Candida albicans [1]) is on record?
**A.** The zone of inhibition at 100 µg/mL was 12 mm.

**Q.** What about the zone of inhibition at 100 µg/mL (Aspergillus niger [2]) of the same molecule?
**A.** The zone of inhibition at 100 µg/mL was 8 mm.

**Q.** What about the zone of inhibition at 100 µg/mL (Salmonella typhimurium [3]) of the same molecule?
**A.** Its zone of inhibition at 100 µg/mL is 15 mm.

**Q.** And the zone of inhibition at 100 µg/mL (Escherichia coli [4])?
**A.** Its zone of inhibition at 100 µg/mL is 17 mm.

**Q.** What about the zone of inhibition at 100 µg/mL (Bacillus subtilis [5]) of the same molecule?
**A.** The zone of inhibition at 100 µg/mL was 8 mm.

**Q.** What about the zone of inhibition at 100 µg/mL (Aspergillus fumigatus [6]) of the same molecule?
**A.** Its zone of inhibition at 100 µg/mL is 10 mm.

**Q.** What about the zone of inhibition at 100 µg/mL (Staphylococcus aureus [7]) of the same molecule?
**A.** The zone of inhibition at 100 µg/mL was 12 mm.
